Laboratory results as given in US5126337A, “Thiazetoquinoline-3-carboxylic acid derivative and a pharmaceutical composition comprising the same” (priority 1989, dated 1992).
Converted amounts (≈) assume the structure as drawn. Values belong to the molecule of their own block, whether it stands above or below them.

Assays:
[1] = system: Klebsiella pneumoniae PCI-602; assay: Antibacterial spectrum, MIC by twofold agar dilution method; type: cell-based; details: PCI602, 10^6 cfu/ml, standard laboratory strain, Gram -, 18 hrs at 37° C, read-out: MIC
Procedure: (§1) Minimum inhibitory concentrations (MIC) of test compounds were determined by the twofold agar dilution method (Chemotherapy, 29(1), 76(1981)). Overnight cultures in Mueller-Hinton broth were suspended by buffered saline gelatin. One loopful of the bacterial suspension (10^6 or 10^8 colony-forming units/ml) was incubated onto the plates containing test compounds. The plates were incubated for 18 hrs at 37° C. The MIC was defined by the lowest concentration of the drug that inhibited visible growth of bacteria.

[2] = system: Escherichia coli NIHJ JC-2; assay: as above; type: cell-based; details: NIHJJC2, 10^6 cfu/ml, standard laboratory strain, Gram -, 18 hrs at 37° C
Procedure: as §1, with “Overnight” for “Minimum inhibitory concentrations (MIC) of test compounds were determined by the twofold agar dilution method (Chemotherapy, 29(1), 76(1981)). Overnight”

[3] = system: Acinetobacter calcoaceticus HNR 904; assay: as above; type: cell-based; details: HNR904, 10^6 cfu/ml, clinically isolated strain, Gram -, 18 hrs at 37° C
Procedure: as §1, with “Overnight” for “Minimum inhibitory concentrations (MIC) of test compounds were determined by the twofold agar dilution method (Chemotherapy, 29(1), 76(1981)). Overnight”

[4] = system: Staphylococuss aureus FDA 209PJC-1; assay: as above; type: cell-based; details: 10^6 cfu/ml; standard laboratory strain, Gram +; 18 hrs at 37° C
Procedure: as §1, with “Overnight” for “Minimum inhibitory concentrations (MIC) of test compounds were determined by the twofold agar dilution method (Chemotherapy, 29(1), 76(1981)). Overnight”

[5] = system: Pseudomonas aeruginosa HNR 1489; assay: as above; type: cell-based; details: HNR1489, 10^6 cfu/ml, clinically isolated strain, Gram -, 18 hrs at 37° C
Procedure: as §1, with “Overnight” for “Minimum inhibitory concentrations (MIC) of test compounds were determined by the twofold agar dilution method (Chemotherapy, 29(1), 76(1981)). Overnight”

[6] = system: Serratia marcescens IAM 1184; assay: as above; type: cell-based; details: IAM1184, 10^6 cfu/ml, standard laboratory strain, Gram -, 18 hrs at 37° C
Procedure: as §1, with “Overnight” for “Minimum inhibitory concentrations (MIC) of test compounds were determined by the twofold agar dilution method (Chemotherapy, 29(1), 76(1981)). Overnight”

[7] = system: Enterococcus faecalis HPC 975; assay: as above; type: cell-based; details: HPC975, 10^6 cfu/ml, clinically isolated strain, Gram +, 18 hrs at 37° C
Procedure: as §1, with “Overnight” for “Minimum inhibitory concentrations (MIC) of test compounds were determined by the twofold agar dilution method (Chemotherapy, 29(1), 76(1981)). Overnight”

[8] = system: Klebsiella pneumoniae HNR 869; assay: as above; type: cell-based; details: HNR869, 10^6 cfu/ml, clinically isolated strain, Gram -, 18 hrs at 37° C
Procedure: as §1, with “Overnight” for “Minimum inhibitory concentrations (MIC) of test compounds were determined by the twofold agar dilution method (Chemotherapy, 29(1), 76(1981)). Overnight”

[9] = system: Acinetobacter calcoaceticus HNR 916; assay: as above; type: cell-based; details: HNR916, 10^6 cfu/ml, clinically isolated strain, Gram -, 18 hrs at 37° C
Procedure: as §1, with “Overnight” for “Minimum inhibitory concentrations (MIC) of test compounds were determined by the twofold agar dilution method (Chemotherapy, 29(1), 76(1981)). Overnight”

[10] = system: Enterococcus faecalis HPC 948; assay: as above; type: cell-based; details: HPC948, 10^6 cfu/ml, clinically isolated strain, Gram +, 18 hrs at 37° C
Procedure: as §1, with “Overnight” for “Minimum inhibitory concentrations (MIC) of test compounds were determined by the twofold agar dilution method (Chemotherapy, 29(1), 76(1981)). Overnight”

[11] = system: Enterobacter cloacae HNR 1946; assay: as above; type: cell-based; details: HNR1946, 10^6 cfu/ml, clinically isolated strain, Gram -, 18 hrs at 37° C
Procedure: as §1, with “Overnight” for “Minimum inhibitory concentrations (MIC) of test compounds were determined by the twofold agar dilution method (Chemotherapy, 29(1), 76(1981)). Overnight”

[12] = system: Staphylococcuss aureus HPC 527; assay: as above; type: cell-based; details: 10^6 cfu/ml; clinically isolated strain, Gram +; 18 hrs at 37° C
Procedure: as §1, with “Overnight” for “Minimum inhibitory concentrations (MIC) of test compounds were determined by the twofold agar dilution method (Chemotherapy, 29(1), 76(1981)). Overnight”

[13] = system: Klebsiella pneumoniae HNR 828; assay: as above; type: cell-based; details: HNR828, 10^6 cfu/ml, clinically isolated strain, Gram -, 18 hrs at 37° C
Procedure: as §1, with “Overnight” for “Minimum inhibitory concentrations (MIC) of test compounds were determined by the twofold agar dilution method (Chemotherapy, 29(1), 76(1981)). Overnight”

[14] = system: Staphylococcuss aureus HPC 292; assay: as above; type: cell-based; details: 10^6 cfu/ml; clinically isolated strain, Gram +; 18 hrs at 37° C; read-out: MIC
Procedure: as §1, with “Overnight” for “Minimum inhibitory concentrations (MIC) of test compounds were determined by the twofold agar dilution method (Chemotherapy, 29(1), 76(1981)). Overnight”

[15] = system: Pseudomonas aeruginosa HNR 1472; assay: as above; type: cell-based; details: HNR1472, 10^6 cfu/ml, clinically isolated strain, Gram -, 18 hrs at 37° C
Procedure: as §1, with “Overnight” for “Minimum inhibitory concentrations (MIC) of test compounds were determined by the twofold agar dilution method (Chemotherapy, 29(1), 76(1981)). Overnight”

[16] = system: Enterobacter cloacae HNR 1939; assay: as above; type: cell-based; details: HNR1939, 10^6 cfu/ml, clinically isolated strain, Gram -, 18 hrs at 37° C
Procedure: as §1, with “Overnight” for “Minimum inhibitory concentrations (MIC) of test compounds were determined by the twofold agar dilution method (Chemotherapy, 29(1), 76(1981)). Overnight”

[17] = system: Staphylococcuss aureus HPC 308; assay: as above; type: cell-based; details: 10^6 cfu/ml; clinically isolated strain, Gram +; 18 hrs at 37° C
Procedure: as §1, with “Overnight” for “Minimum inhibitory concentrations (MIC) of test compounds were determined by the twofold agar dilution method (Chemotherapy, 29(1), 76(1981)). Overnight”

[18] = system: Pseudomonas aeruginosa IFO 3445; assay: as above; type: cell-based; details: IFO3445, 10^6 cfu/ml, standard laboratory strain, Gram -, 18 hrs at 37° C
Procedure: as §1, with “Overnight” for “Minimum inhibitory concentrations (MIC) of test compounds were determined by the twofold agar dilution method (Chemotherapy, 29(1), 76(1981)). Overnight”

[19] = system: Serratia marcescens HNR 1792; assay: as above; type: cell-based; details: HNR1792, 10^6 cfu/ml, clinically isolated strain, Gram -, 18 hrs at 37° C
Procedure: as §1, with “Overnight” for “Minimum inhibitory concentrations (MIC) of test compounds were determined by the twofold agar dilution method (Chemotherapy, 29(1), 76(1981)). Overnight”

[20] = system: Enterobacter cloacae HNR 1941; assay: as above; type: cell-based; details: HNR1941, 10^6 cfu/ml, clinically isolated strain, Gram -, 18 hrs at 37° C
Procedure: as §1, with “Overnight” for “Minimum inhibitory concentrations (MIC) of test compounds were determined by the twofold agar dilution method (Chemotherapy, 29(1), 76(1981)). Overnight”

[21] = system: Klebsiella pneumoniae HNR 858; assay: as above; type: cell-based; details: HNR858, 10^6 cfu/ml, clinically isolated strain, Gram -, 18 hrs at 37° C
Procedure: as §1, with “Overnight” for “Minimum inhibitory concentrations (MIC) of test compounds were determined by the twofold agar dilution method (Chemotherapy, 29(1), 76(1981)). Overnight”

[22] = system: Enterococcus faecalis HPC 984; assay: as above; type: cell-based; details: HPC984, 10^6 cfu/ml, clinically isolated strain, Gram +, 18 hrs at 37° C
Procedure: as §1, with “Overnight” for “Minimum inhibitory concentrations (MIC) of test compounds were determined by the twofold agar dilution method (Chemotherapy, 29(1), 76(1981)). Overnight”

[23] = system: Acinetobacter calcoaceticus HNR 939; assay: as above; type: cell-based; details: HNR939, 10^6 cfu/ml, clinically isolated strain, Gram -, 18 hrs at 37° C
Procedure: as §1, with “Overnight” for “Minimum inhibitory concentrations (MIC) of test compounds were determined by the twofold agar dilution method (Chemotherapy, 29(1), 76(1981)). Overnight”

[24] = system: Pseudomonas aeruginosa HNR 1537; assay: as above; type: cell-based; details: HNR1537, 10^6 cfu/ml, clinically isolated strain, Gram -, 18 hrs at 37° C
Procedure: as §1, with “Overnight” for “Minimum inhibitory concentrations (MIC) of test compounds were determined by the twofold agar dilution method (Chemotherapy, 29(1), 76(1981)). Overnight”

[25] = system: Serratia marcescens HNR 1767; assay: as above; type: cell-based; details: HNR1767, 10^6 cfu/ml, clinically isolated strain, Gram -, 18 hrs at 37° C
Procedure: as §1, with “Overnight” for “Minimum inhibitory concentrations (MIC) of test compounds were determined by the twofold agar dilution method (Chemotherapy, 29(1), 76(1981)). Overnight”

[26] = system: Serratia marcescens HNR 1544; assay: as above; type: cell-based; details: HNR1544, 10^6 cfu/ml, clinically isolated strain, Gram -, 18 hrs at 37° C
Procedure: as §1, with “Overnight” for “Minimum inhibitory concentrations (MIC) of test compounds were determined by the twofold agar dilution method (Chemotherapy, 29(1), 76(1981)). Overnight”

[27] = system: Enterobacter cloacae 963; assay: as above; type: cell-based; details: 10^6 cfu/ml, standard laboratory strain, Gram -, 18 hrs at 37° C
Procedure: as §1, with “Overnight” for “Minimum inhibitory concentrations (MIC) of test compounds were determined by the twofold agar dilution method (Chemotherapy, 29(1), 76(1981)). Overnight”

[28] = system: Male mice of ddY strain; assay: Convulsion inducing activity in combination with fenbufen; details: 100 mg/kg (i.p.), 30 min after fenbufen 100 mg/kg orally
Procedure: Male mice of ddY strain, 5 weeks old, were used. Fenbufen suspended in 0.5% carboxymethyl cellulose was administered orally at a dose of 100 mg/kg. After thirty minutes, test compounds suspended in 0.5% carboxymethyl cellulose were injected intraperitoneally (i.p.) at a dose of 100 mg/kg or 300 mg/kg.

MIC [1]: 0.025 µg/mL (≈ 0.0632 µM)
MIC [2]: 0.1 µg/mL (≈ 0.253 µM)
MIC [3]: 12.5 µg/mL (≈ 31.6 µM)
MIC [4]: 0.2 µg/mL (≈ 0.506 µM)
MIC [5]: 0.78 µg/mL (≈ 1.97 µM)
MIC [6]: 0.2 µg/mL (≈ 0.506 µM)
MIC [7]: 6.25 µg/mL (≈ 15.8 µM)
MIC [8]: 6.25 µg/mL (≈ 15.8 µM)
MIC [9]: 0.1 µg/mL (≈ 0.253 µM)
MIC [10]: 3.13 µg/mL (≈ 7.92 µM)
MIC [11]: 0.78 µg/mL (≈ 1.97 µM)
MIC [12]: 0.2 µg/mL (≈ 0.506 µM)
MIC [13]: 12.5 µg/mL (≈ 31.6 µM)
MIC [14]: 6.25 µg/mL (≈ 15.8 µM)
MIC [15]: 50 µg/mL (≈ 126 µM)
MIC [16]: 0.78 µg/mL (≈ 1.97 µM)
MIC [17]: 1.56 µg/mL (≈ 3.95 µM)
MIC [18]: 0.78 µg/mL (≈ 1.97 µM)
MIC [19]: 12.5 µg/mL (≈ 31.6 µM)
MIC [20]: 25 µg/mL (≈ 63.2 µM)
MIC [21]: 0.78 µg/mL (≈ 1.97 µM)
MIC [22]: 0.78 µg/mL (≈ 1.97 µM)
MIC [23]: 0.78 µg/mL (≈ 1.97 µM)
MIC [24]: 100 µg/mL (≈ 253 µM)
MIC [25]: 25 µg/mL (≈ 63.2 µM)
MIC [26]: 0.2 µg/mL (≈ 0.506 µM)
MIC [27]: 0.2 µg/mL (≈ 0.506 µM)
Compound: CC1Sc2c(C(=O)O)c(=O)c3cc(F)c(N4CCC(N(C)C)C4)c(F)c3n21 (stereo not shown) [Example 36, 7-(3-Dimethylamino-1-pyrrolidinyl)-6,8-difluoro-1-methyl-4-oxo-1H,4H-[1,3]thiazeto[3,2-a]quinoline-3-carboxylic acid]

Compound: CC1Sc2c(C(=O)O)c(=O)c3cc(F)c(N4CCNCC4)c(F)c3n21 (stereo not shown) [Reference Drug C, 6,8-difluoro-1-methyl-4-oxo-7-(1-piperazinyl)-1H,4H-[1,3]thiazeto[3,2-a]quinoline-3-carboxylic acid, reference compound]
Number of convulsion induced/Number of animals [28]: 6/6
